Data: patent US5948784A, “Quinazoline derivatives” (Kyowa Hakko Kogyo Co., Ltd., priority 1994, dated 1999)
pIC50, pKi: −log10 of the molar value.

Key:
[1] = biological target: T1, [^3 H]-Nitrobenzylthioinosine (NBI) binding, cerebral cortex homogenate (Cavia porcellus, UniProt H0V4R7); assay: Inhibitory Effect on [^3 H]-Nitrobenzylthioinosine (NBI) Binding; design: species or system guinea pig (male, Hartley strain); conditions: guinea pig cerebral cortex, 1.5 nM [^3 H]-NBI, 25° C., 30 minutes, Cheng-Prusoff
T1 construct: The cerebral cortex of a male guinea pig of Hartley strain was homogenized; from tissue; host or cells: cerebral cortex of male Hartley guinea pig (washed membrane precipitate)
T1 sequence (H0V4R7 1-461): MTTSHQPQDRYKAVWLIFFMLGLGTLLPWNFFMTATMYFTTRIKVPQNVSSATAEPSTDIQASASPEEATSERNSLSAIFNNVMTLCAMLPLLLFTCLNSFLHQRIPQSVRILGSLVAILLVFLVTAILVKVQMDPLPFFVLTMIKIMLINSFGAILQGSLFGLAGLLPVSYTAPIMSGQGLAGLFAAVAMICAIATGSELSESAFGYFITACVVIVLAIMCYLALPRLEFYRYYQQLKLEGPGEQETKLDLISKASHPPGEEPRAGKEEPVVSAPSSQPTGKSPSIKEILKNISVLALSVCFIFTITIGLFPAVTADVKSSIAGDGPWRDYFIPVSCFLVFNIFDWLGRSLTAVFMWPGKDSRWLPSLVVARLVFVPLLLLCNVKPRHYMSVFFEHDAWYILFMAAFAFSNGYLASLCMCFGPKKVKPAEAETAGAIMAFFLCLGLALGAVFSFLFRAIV
Description: The cerebral cortex of a male guinea pig of Hartley strain was homogenized with an ice-cooled 50 mM tris-HCl buffer (pH 7.4) in an amount of 25 times (w/v) that of the tissue. The homogenate was centrifuged (30,000×g, 4° C., 20 mins.), and the supernatant was discarded. To the precipitate was added the same amount of the buffer, followed by homogenization and then centrifugation in the same manner as above. The obtained precipitate was suspended in 20 times as much buffer as the precipitate to prepare a suspension for testing. To a DMSO solution of a test compound were added 1.5 nM of [^3 H]-NBI and 5 mg (wet basis) of the tissue homogenate, and the mixture was allowed to stand at 25° C. for 30 minutes. To the mixture was added 4 ml of an ice-cooled buffer, followed by rapid filtration with suction through a glass filter (GF/C, produced by Whatman Ltd.) or a Ready filter (produced by Beckman Co.) to stop the reaction. The filter was transferred to a scintillation vial, and after drying, Scintisol EX-H was added thereto. The radioactivity was measured with a liquid scintillation counter. The binding inhibitory activity was expressed in terms of an inhibition constant (Ki value) as calculated according to Cheng-Prusoff's formula.

[2] = tested on: Masugi Nephritis in ddY-strain male mice; assay: Effect on Increase of Albumin Excretion in Masugi Nephritis; type: in vivo, mouse
Description: Mouse nephrotoxin (hereinafter referred to as NT) was prepared according to the method of Ito, et al. [The Japanese Journal of Nephrology, 23, 25-36 (1981)]. That is, glomerular basement membrane (hereinafter referred to as GBM) was isolated from mouse kidney and digested with trypsin (Sigma). The digested GBM was subjected to ultracentrifugation under cooling, and the supernatant was dialyzed against distilled water, followed by lyophilization. The lyophile product was intracutaneously injected as an antigen into four foot pads of a rabbit together with Freund's complete adjuvant (Iatron; hereinafter referred to as FCA) once a week for 4 weeks for immunization. The whole blood was drawn from the immunized rabbit, and serum was separated and inactivated at 56° C. for 30 minutes to prepare NT.
In this test, ddY-strain male mice weighing 29-36 g were used. For previous immunization, 0.25 ml of an FCA emulsion containing 0.25 mg of rabbit immunoglobulin-globulin (IgG, Sigma) was intraperitoneally injected into mice. Nephritis was induced by intravenous injection of 0.075 ml of NT through the tail vein 4 and 11 days after the previous immunization. […] The supernatant was analyzed for albumin using an autoanalyzer (Olympus). […]
The results are shown in Table 7 as the means±standard error of each group consisting of 11 mice. Statistical significance was evaluated by Student's t-test.

[3] = tested on: Diabetic Nephropathy (STZ) in ddY-strain male mice; assay: Effect on Increase of Albumin Excretion in Diabetic Nephropathy; type: in vivo, mouse; conditions: for Urinary Albumin Content: mean, standard error, control 333 ± 30, normal 80 ± 3
Description: In this test, ddY-strain male mice weighing 25-28 g were used. Diabetes was induced according to the method of Tsuchida, et al. [Jin To Toseki (Kidney and Dialysis), 31, 363-366 (1991)]. That is, streptozotocin (5 mg/ml, Sigma; hereinafter referred to as STZ) dissolved in 0.05 M citrate buffer was intravenously injected into mice through the tail vein at a dose of 10 ml/kg. On the fourth day after the STZ administration, 30 μl of blood was collected from the tail vein of the mice and the blood glucose was determined using Glutestsensor (Sanwa Kagaku). The animals were divided into three groups based on the blood glucose level. Twelve weeks after the STZ administration, each mouse was put into a metabolic cage and received oral administration of 0.5 ml/10 g of distilled water twice at an interval of 12 hours. Urine was collected for 24 hours, and after measurement of the volume, the urine was centrifuged under cooling (3000 rpm, 4° C. ) for 5 minutes. The supernatant was analyzed for albumin using an autoanalyzer (Olympus). A test compound was orally administered once a day for 11 weeks, starting on the fifth day after the STZ administration. The normal group and the control group received oral administration of a solvent (5% methyl cellulose solution). The results are shown in Table 8 as the means standard error of each group. Statistical significance was evaluated by Aspin-Welch's test for the difference between the control group and the normal group and by Steel's test for the difference between the control group and the test compound-administered group.

dd-strain male mice = assay: Acute Toxicity Test; type: in vivo; conditions: mortality seven days after administration
Description: A test compound was orally or intraperitoneally administered to groups of dd-strain male mice weighing 20±1 g, each group consisting of three mice. […] The MLD was >1000 mg/kg for oral administration of Compound 10 and was >100 mg/kg for intraperitoneal administration of Compound 10.

[4] = tested on: [^3 H]-adenosine uptake in erythrocytes; assay: Inhibitory Effect on [^3 H]-Adenosine Uptake (washed erythrocytes); type: cell-based, human (healthy male adult); conditions: Homo sapiens; erythrocyte suspension, 1 hour preincubation at room temperature, 10 seconds uptake; read-out: [^3 H]-Adenosine Uptake Inhibition IC50
Description: A blood sample was obtained from a healthy adult under 40 years of age by brachial venipuncture using a syringe containing sodium citrate and subjected to centrifugation to obtain washed erythrocytes. […] Ten seconds later, 200 μl of a dilazep solution (1 mg/ml) was added to stop the reaction. […] The supernatant was removed and the erythrocyte fraction was separated. […] The concentration of the test compound which inhibits the [^3 H]-adenosineuptake by 50% (IC50) was calculated.

Compound | pKi [1] | pIC50 [4] | further results
CCOc1cc2nc(N3CCOCC3)nc(N3CCC(n4c(=O)c5cc(C)ccc5n(C)c4=O)CC3)c2cc1OCC.Cl [Compound 10, 3-[1-(6,7-Diethoxy-2-morpholino-4-quinazolinyl)-4-piperidinyl]-1,2,3,4-tetrahydro-1,6-dimethyl-2,4-dioxoquinazoline hydrochloride] | 8.70 | 7.01 | Urinary Albumin Content ([2]; 1 mg/kg oral once a day, mean ± standard error, 11 mice, control 134 ± 9, normal 85 ± 5, marked **): 96 ± 7 mg/kg/24 hr; effect on increase of urinary albumin in nephritis (in words) ([2]; Masugi nephritis, mice): inhibits the increase of urinary albumin in nephritis; Urinary Albumin Content ([3]; 1 mg/kg oral once a day for 11 weeks, 10 animals, * less than 5% vs control): 244 ± 16 mg/kg/24 hr; Urinary Albumin Content ([3]; 10 mg/kg oral once a day for 11 weeks, 9 animals, ** less than 1% vs control): 200 ± 13 mg/kg/24 hr; effect on increase of urinary albumin in diabetic nephropathy (in words) ([3]; STZ diabetic nephropathy, mice): inhibits the increase of urinary albumin in diabetic nephropathy; minimum lethal dose (MLD), intraperitoneal (dd-strain male mice; intraperitoneal): > 100 mg/kg; minimum lethal dose (MLD), oral (dd-strain male mice; oral): > 1000 mg/kg
COc1cc2nc(N(C)C)nc(N3CCC(n4c(=O)c5cc(C)ccc5n(C)c4=O)CC3)c2cc1OC [Compound 5, 3-[1-(2-Dimethylamino-6,7-dimethoxy-4-quinazolinyl)-4-piperidinyl]-1,2,3,4-tetrahydro-1,6-dimethyl-2,4-dioxoquinazoline] | 8.59 | – | –
COc1cc2nc(N3CCOCC3)nc(N3CCC(n4c(=O)c5cc(C)ccc5n(C)c4=O)CC3)c2cc1OC [Compound 1, 3-[1-(6,7-Dimethoxy-2-morpholino-4-quinazolinyl)-4-piperidinyl]-1,2,3,4-tetrahydro-1,6-dimethyl-2,4-dioxoquinazoline] | 8.70 | 7.46 | –
COc1cc2nc(N3CCN(C)CC3)nc(N3CCC(n4c(=O)c5cc(C)ccc5n(C)c4=O)CC3)c2cc1OC [Compound 2, 3-{1-[6,7-Dimethoxy-2-(4-methyl-1-piperazinyl)-4-quinazolinyl]-4-piperidinyl}-1,2,3,4-tetrahydro-1,6-dimethyl-2,4-dioxoquinazoline] | – | 7.19 | –
COc1cc2nc(N(CCO)CCO)nc(N3CCC(n4c(=O)c5cc(C)ccc5n(C)c4=O)CC3)c2cc1OC [Compound 6, 3-{1-[2-Bis(2-hydroxyethyl)amino-6,7-dimethoxy-4-quinazolinyl]-4-piperidinyl}-1,2,3,4-tetrahydro-1,6-dimethyl-2,4-dioxoquinazoline] | 8.82 | 7.54 | –

More lines, main results first:

pKi [1] | pIC50 [4] | Compound | further results
8.12 | – | CCOC(=O)C1CCN(c2nc(N3CCC(n4c(=O)c5cc(C)ccc5n(C)c4=O)CC3)c3cc(OC)c(OC)cc3n2)CC1 [Compound 3, 3-{1-[2-(4-Ethoxycarbonylpiperidino)-6,7-dimethoxy-4-quinazolinyl]-4-piperidinyl}-1,2,3,4-tetrahydro-1,6-dimethyl-2,4-dioxoquinazoline] | –
8.85 | 7.30 | CCCNc1nc(N2CCC(n3c(=O)c4cc(C)ccc4n(C)c3=O)CC2)c2cc(OC)c(OC)cc2n1 [Compound 8, 3-[1-(6,7-Dimethoxy-2-propylamino-4-quinazolinyl)-4-piperidinyl]-1,2,3,4-tetrahydro-1,6-dimethyl-2,4-dioxoquinazoline] | –
– | 7.14 | COc1cc2nc(N3CCC(C(=O)O)CC3)nc(N3CCC(n4c(=O)c5cc(C)ccc5n(C)c4=O)CC3)c2cc1OC [Compound 4, 3-{1-[2-(4-Carboxypiperidino)-6,7-dimethoxy-4-quinazolinyl]-4-piperidinyl}-1,2,3,4-tetrahydro-1,6-dimethyl-2,4-dioxoquinazoline] | –
8.42 | 7.21 | COc1cc2nc(N(C)CCN(C)C)nc(N3CCC(n4c(=O)c5cc(C)ccc5n(C)c4=O)CC3)c2cc1OC [Compound 7, 3-{1-{2-[N-(2-Dimethylaminoethyl)-N-methylamino]-6,7-dimethoxy-4-quinazolinyl}-4-piperidinyl}-1,2,3,4-tetrahydro-1,6-dimethyl-2,4-dioxoquinazoline] | –
